This note sets out measurements from US20150209379A1, “TREATMENT OF PROSTATE CANCER AND HEMATOLOGIC NEOPLASMS” (THOMAS JEFFERSON UNIVERSITY, priority 2012, published 2015).

The target in the test is T1, Stat5a (Homo sapiens, UniProt P42229).
T1 sequence (P42229 1-794): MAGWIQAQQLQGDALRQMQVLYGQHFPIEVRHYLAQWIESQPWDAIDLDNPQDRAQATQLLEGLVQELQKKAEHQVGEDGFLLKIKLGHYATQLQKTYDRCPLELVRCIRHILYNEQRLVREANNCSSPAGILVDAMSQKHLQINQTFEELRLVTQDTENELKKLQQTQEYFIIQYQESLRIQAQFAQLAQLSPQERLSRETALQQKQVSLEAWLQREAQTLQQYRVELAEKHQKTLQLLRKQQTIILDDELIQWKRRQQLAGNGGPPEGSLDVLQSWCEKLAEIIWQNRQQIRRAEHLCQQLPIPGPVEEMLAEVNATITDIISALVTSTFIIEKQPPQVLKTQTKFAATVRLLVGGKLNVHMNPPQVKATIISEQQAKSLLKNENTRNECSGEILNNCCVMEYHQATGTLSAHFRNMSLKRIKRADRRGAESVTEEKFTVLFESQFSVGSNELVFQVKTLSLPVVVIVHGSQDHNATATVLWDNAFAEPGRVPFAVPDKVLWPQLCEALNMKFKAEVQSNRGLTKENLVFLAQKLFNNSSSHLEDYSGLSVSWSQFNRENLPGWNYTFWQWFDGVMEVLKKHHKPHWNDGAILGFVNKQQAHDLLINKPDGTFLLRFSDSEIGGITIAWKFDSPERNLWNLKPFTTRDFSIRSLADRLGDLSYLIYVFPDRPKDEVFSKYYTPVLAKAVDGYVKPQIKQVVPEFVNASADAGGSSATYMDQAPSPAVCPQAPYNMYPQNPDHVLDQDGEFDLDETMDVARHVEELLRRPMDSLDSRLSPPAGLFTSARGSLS
Briefly: Stat5a dimerization (FLAG-/MYC-tagged Stat5a co-immunoprecipitation) in PC-3 cells. The test is classed as cell-based. The arrangement: expressed in transfected cells; host or cells: PC-3 human prostate cancer cells. As to conditions: 2 hours pretreatment, then hPrl 10 nM 30 minutes. The method, then:
(§1) FLAG-tagged Stat5a and MYC-tagged Stat5a were generated by standard molecular biology cloning techniques. Plasmid pCMV3-FLAG-Stat5a, pCMV3-MYC-Stat5a and pPr1R were co-transfected using FuGENE6 (Roche) into PC-3 cells (2 μg of each plasmid per 1×10^7 cells). The cells were starved for 20 hours, pretreated with test compound for 2 hours, then stimulated with hPrl (10 nM) in RPMI 1640 without serum for 30 minutes. The cell lysates were immunoprecipitated with 25 μl anti-FLAG M2 […] affinity gel (2 μg/ml, Sigma), anti-MYC pAb (1 μg/ml, Upstate) or normal rabbit serum (NRS). The primary antibodies were used in the immunoblottings at the following concentrations: anti-FLAG pAb (1:1000; Stratagene), anti-MYC mAb (1:1000; Sigma), anti-Stat5a/b mAb (1:250) (Transduction Laboratories) detected by horseradish peroxidase-conjugated secondary antibodies. The results are shown in FIG. 3A for Compound 1 and FIG. 3B for Compound 2.
Lanes 1, 2, 4, 6 and 8 represent cells stimulated with human prolactin (Prl) for 30 minutes which induces dimerization of Stat5. Two hours prior to Prl-stimulation, the cells had been treated with DMSO (lanes 1-4), the control compound C5 (lanes 7 and 8) and either Compound 1 (lanes 5 and 6 in FIG. 3A) or Compound 2 (lanes 5 and 6 in FIG. 3B). […] It should be noted the drug effect in this study was not due to cell apoptosis induction, as the treatment time was only 2 hours. Treatment of at least 48 hours is required for the compound to induce prostate cancer cell apoptosis.
as §1, with “and pPrlR” for “and pPr1R”, “hours, pre-treated” for “hours, pretreated”, “with NBPP” for “with test compound”, “2 h,” for “2 hours,”, “antibodies.” for “antibodies. The results are shown in FIG. 3A for Compound 1 and FIG. 3B for Compound 2.”
Lanes 1, 2, 4, 6 and 8 represent cells stimulated with human prolactin (Prl) for 30 minutes which induces dimerization of Stat5. Two hours prior to Prl-stimulation, the cells had been treated with DMSO (lanes 1-4), the control compound C5 (lanes 5 and 6) or NBPP (lanes 7 and 8) to test whether the Stat5a/b-inhibitor compound, NBPP, would be able to inhibit dimerization of StatS. […] It should be noted the drug effect in this study was not due to cell apoptosis induction, as the treatment time was only 2 hours. Treatment of at least 48 hours is required for the compound to induce prostate cancer cell apoptosis.
FLAG-tagged Stat5a and MYC-tagged Stat5a were generated by standard molecular biology cloning techniques.as follows. […] The primary antibodies were used in the immunoblottings at the following concentrations: anti-FLAG pAb (1:1000; Stratagene), anti-MYC mAb (1:1000; Sigma), anti-Stat5a/b mAb (1:250) (Transduction Laboratories) detected by horseradish peroxidase-conjugated secondary antibodies. […]

For `Nc1nc(SCc2cccnc2)[nH]c(=O)c1NC(=O)c1ccco1` [Compound C5, reference compound], the “effect on Stat5a dimerization” value is recorded as “did not inhibit dimerization of Stat5a”.
